Patent US20060079575A1, “Gamma-butyrolactone compound and pharmaceutical composition thereof” (priority 2003, published 2006)
In brackets after ≈: the same amount, converted by molar mass. Where two headings read alike, the source gives them in different places.

What was measured:
[1] = tested on: A549 (lung cancer cell line); test: MTT cytotoxicity assay, A549; assay type: cell-based, human; conditions: 24 hr
Excerpt: (§1) MTT assay is used to test the cytotoxic effect of BS-AE, BS-ME, BS-HE, BS-CE and BS-WE on human lung cancer cell line A549. […] According to the extraction process “BS-AE→BS-MWE→BS-CE” all of the crude extracts contain tumor inhibitory components. In order to further isolate the tumor inhibitory components from Bupleurum scorzonerifolium extract, a “Chromatography” step is further employed to isolate the BS-CE.
(§2) It is known from the experimental result of this invention, BS-AE containing the γ-butyrolactone compound and pharmaceutical composition thereof have significant growth inhibitory effect on human hepatoma, lung cancer, ovarian cancer, breast cancer, malignant glioblastoma and colorectal carcinoma cells.

[2] = tested on: WI-38 (embryonic fibroblast cell line); test: MTT cytotoxicity assay, WI-38; assay type: cell-based; conditions: 24 hr
telomerase [3] = test: Telomerase activity of treated tumor cell lines; assay type: cell-based; conditions: cell lines of human lung cancer, hepatoma, malignant glioblastoma, colorectal carcinoma
Method: A prominent cytotoxic effect was shown when the γ-butyrolactone heterocyclic compound and pharmaceutical composition thereof are added to the Paclitaxel-resistant tumor cell lines, indicating Bupleurum scorzonerifolium indeed contain active components for inhibiting tumor growth. The active components for inhibiting tumor growth refer to the novel compound and pharmaceutical composition thereof having a γ-core and having a Z or E configuration for its carbon 2(5) location at the core.

p21 and p53 = test: Western blotting of p21 and p53, A549; assay type: cell-based, human
Excerpt: FIG. 5 is a western blot analysis diagram showing the amount of tumor suppressors: p21 and p53 expressed in A 549 cells either untreated (B), treated with DMSO (D) or BS-AE, BS-ME, BS-WE, isochaihulactone (BS-1), or chaihulactone (BS-2) for 1 day (1D) or 3 days (3D);

A549-T12 cells [4] = test: Annexin V-FLOUS/PI flow cytometry (apoptosis), A549-T12; assay type: cell-based, human; conditions: A549-T12, 8 μg/ml, 48 hours; untreated 6.8%
Excerpt: FIGS. 9A through to 9D are cytograms showing the extent of cell apoptosis detected using flow cytometry for Paclitaxel-resistant human lung cancer cell lines (A549-T12 cells) either untreated, treated with BS-AE, isochalihulactone (BS-8), or isokaerophyllin ([…] fluorescence intensity of tumor cells bound with Annexin V-FLOUS antibodies; and Y-axis indicates fluorescence intensity of tumor cells bound with PI antibodies);
The following embodiments are described with Paclitaxel-resistant tumor cell A549-T12 (passage cultured from lung cancer cell line A549 cells with low concentration of Paclitaxel) as an example to test the effect of BS-AE and its pure compounds BS-8 and BS-15 (these represent isochaihulactone and chaihulactone analogues) on A549-T12 cells. Flow cytometry, drug toxicity test, and histological sections are adopted to evaluate cytotoxic effect of the γ-butyrolactone compound and pharmaceutical composition thereof on Paclitaxel-resistant tumor cells.
FIGS. 9A through to 9D are flow cytometry results illustrating a comparison of the change of Annexin V-FLOUS and PI for untreated group with that of the group treated with 100 nM of Paclitaxel, 30 μg/ml BS-AE, 8 μg/ml BS-8 and 8 μg/ml BS-15 to A549-T12. […]

A549-T12 cells [5] = test: MTT assay A549-T12, 24 and 48 hrs (FIG. 10); assay type: cell-based, human; conditions: Paclitaxel-resistant lung cancer cell line
Method: FIGS. 10A through to 10C illustrate results of MTT assays for A549-T12 cells treated with BS-AE, isochaihulactone (BS-8), and isokaerophyllin (BS-15) respectively for 24 hrs and 48 hrs;
Besides, after BS-AE, BS-8, and BS-15 are added to Paclitaxel-resistant lung cancer cell line for 48 hours, viability ratio of tumor cells is reduced as illustrated in FIGS. 10A through to 10C. So, in view of IC50 or ED50, the cytotoxic effect of purified chaihulactone analog on the tumor cells is […] than BS-AE. […] Furthermore, a substantially low dose (1.5 μg/ml) of the compound is all that requires to induce apoptosis for the tumor cells.

[6] = tested on: A549-T12 (taxol resistant A549 subline); test: MTT cytotoxicity assay, A549-T12; assay type: cell-based, human; conditions: 24 hr
[7] = tested on: HT29 (colon cancer cell line); test: MTT cytotoxicity assay, HT29; assay type: cell-based, human; conditions: 24 hr
Excerpt: as §1, §2

[8] = tested on: MCF 7 (breast cancer cell line); test: MTT cytotoxicity assay, MCF 7; assay type: cell-based; conditions: Homo sapiens, MCF7, read-out: IC 50, MCF 7; 24 hr
Excerpt: as §1, §2

[9] = tested on: OVCAR-3 (ovarian cancer cell line); test: MTT cytotoxicity assay, OVCAR-3; assay type: cell-based; conditions: Homo sapiens, OVCAR-3, read-out: IC 50, OVCAR-3; 24 hr
Excerpt: as §1, §2

telomerase [10] = test: Inhibition of telomerase activity in Paclitaxel-resistant tumor cells; assay type: cell-based, human; conditions: Paclitaxel-resistant tumor cells (A549-T12)
Excerpt: Furthermore, after crude Bupleurum scorzonerifolium is processed according to the above-mentioned manufacturing method, its tumor inhibitory effect is more prominent.

A549 cells [11] = test: Annexin V-FLOUS/PI flow cytometry (apoptosis), A549; assay type: cell-based, human; conditions: A549, 20 μM, cultured 48 hours; untreated 3.8%
Method: FIGS. 3A through to FIG. 3C are cytograms showing the extent of cell apoptosis detected using flow cytometry for A 549 cells either untreated, treated with 20 μM of isochalihulactone, or 60 μg/ml of BS-AE and cultured for 48 hrs (wherein X-axis indicates fluorescence intensity of tumor cells bound with Annexin V-FLOUS antibodies; and Y-axis indicates fluorescence intensity of tumor cells bound with PI antibodies);
In the example of using cell line A549, untreated A549 cells, A549 cells treated with 20 μM of Isochaihulactone and A549 cells treated with 60 μg/ml of BS-AE are cultured 48 hours before utilizing flow cytometry to detect the staining results between Annexin V-FLOUS and PI. In FIGS. 3A through to 3C, X-axis represents the fluorescent brightness of tumor cells with antibody Annexin V-FLOUS, and Y-axis represents the fluorescent brightness of tumor cells with antibody PI.

A549 cells [12] = test: Cell cycle by flow cytometry, A549; assay type: cell-based, human
Excerpt: FIGS. 2A through to FIG. 2D illustrate the cell cycle peak change detected using flow cytometry for A549 cells treated with Bupleurum scorzonerifolium extracts: acetone extract (BS-AE), methanol extract (BS-ME) and water extract (BS-WE) isolated according to the extracting method of the invention;
FIG. 4 is a bar chart showing cell cycle changes detected using flow cytometry for A549 cells untreated, treated with BS-AE, isochaihulactone (BS-8), and Paclitaxel;
Furthermore, flow cytometry is employed to observe the changes in cell cycle before and after the addition of different extracts from Bupleurum scorzonerifolium to A549 cells. In FIGS. 2A through to 2D, X-axis represents chromosome numbers (2N, 4N, etc.) of tumor cells in contact with the antibody, Y-axis represents the fluorescent brightness of Fluorescein Isothiocyanate (FITC). […] This effect is most significant for BS-AE.

[13] = tested on: Hep G2 (Hepatocellular carcinoma); test: MTT cytotoxicity assay, Hep G2; assay type: cell-based; conditions: Homo sapiens, HepG2, read-out: IC 50, HepG2; heading: IC 50, HepG2; 24 hr
Excerpt: as §1, §2

β-tubulin = test: Western blot of soluble and particular β-tubulin, A549; assay type: cell-based, human; conditions: A549, FIG. 7
Excerpt: FIG. 7 is a western blot analysis diagram showing expression of soluble (S) and particular (P) form of β-tubulin in A549 cells either untreated (C), treated with BS-AE, isochaihulactone (BS-8), Paclitaxel, or Vinblastine;
[…] is then used to analyze the change of cytoskeleton of tumor cell lines treated with Bupleurum scorzonerifolium extract. […] Then, a polymerization event is observed before and after the treatment of BS-AE.

[14] = tested on: J5 (hepatocellular carcinoma); test: MTT cytotoxicity assay, J5; assay type: cell-based; conditions: Homo sapiens, read-out: IC 50, J 5; heading: IC 50, J 5; 24 hr
Excerpt: as §1, §2

[15] = tested on: DBTRG-05MG (glioblastoma multiforme); test: MTT cytotoxicity assay, DBTRG-05MG; assay type: cell-based; conditions: Homo sapiens, read-out: IC 50, DBTRG-05MG, 24 hr
Excerpt: as §1, §2

## N.N.[Cl][Pt][Cl] [Cisplatin, cisdiammine dichloroplatinum]
[1]
  IC 50, A549: 17200 ± 2700 µg/mL
[2]
  IC 50, WI 38: 21300 ± 4500 µg/mL

## COc1cc(/C=C2/C(=O)OC[C@@H]2Cc2ccc3c(c2)OCO3)cc(OC)c1OC [Component 3, Chaihulactone]
Telomerase [3]
  reduction of telomerase activity vs untreated control: 5 times
p21 and p53
  expression level of tumor suppressor p21 and p53: significant increase

## COc1ccc(/C=C2\C(=O)OC[C@@H]2Cc2ccc3c(c2)OCO3)cc1OC [BS-15, Isokaerophyllin]
A549-T12 cells [4]
  tumor cells coupled to Annexin V: 23.1%
A549-T12 cells [5]
  viability ratio of tumor cells: reduced

## paclitaxel [Taxol, reference compound]
[6]; Taxol in nM, read-out: IC 50, A549-T12
  IC50: 20 ± 2.7 nM
[1]; Taxol in nM, read-out: IC 50, A549
  IC50: 4 ± 0.6 nM
[7]; Taxol in nM, read-out: IC 50, HT 29
  IC50: 3 ± 0.5 nM

## COc1cc(/C=C2\C(=O)OC[C@@H]2Cc2ccc3c(c2)OCO3)cc(OC)c1OC [BS-8, Isochaihulactone]
Telomerase [3]
  reduction of telomerase activity vs untreated control: 5 times
[6]; Homo sapiens, A549, read-out: IC 50, A549-T12, heading: IC 50, A549-T12
  IC50: 1.7 ± 0.3 µg/mL
[1]; Homo sapiens, A549, read-out: IC 50, A549
  IC50: 8 ± 0.8 µg/mL
[8]
  IC50: 8 ± 0.8 µg/mL (≈ 20.1 µM)
[9]
  IC50: 7.2 ± 1.2 µg/mL (≈ 18.1 µM)
[7]; Homo sapiens, HT-29, read-out: IC 50, HT 29, heading: IC 50, HT 29
  IC50: 5 ± 0.8 µg/mL
Telomerase [10]
  effective concentration for inhibiting telomerase activity: about 1.2 μg/mL
A549 cells [11]
  tumor cells coupled to Annexin V: 32.7%
A549-T12 cells [4]
  tumor cells coupled to Annexin V: 30.6%
A549 cells [12]
  cell cycle effect: arrest at G2/M stage
A549-T12 cells [5]
  viability ratio of tumor cells: reduced
[13]
  IC50: 5.5 ± 0.5 µg/mL (≈ 13.8 µM)
β-tubulin
  particular form (polymerized β-microtubule): increases
  soluble form (non-polymerized β-microtubule): significantly diminishes
p21 and p53
  expression level of tumor suppressor p21 and p53: significant increase
[14]
  IC50: 3.5 ± 0.7 µg/mL (≈ 8.78 µM)
[15]
  IC50: 7.5 ± 1 µg/mL (≈ 18.8 µM)
